Reference: patent publication US20130059805A1, “COMPOSITION COMPRISING AN AMORPHOUS NON-CRYSTALLINE GLASS FORM OF AZITHROMYCIN” (North-West University, priority 2009, published 2013)
Converted amounts (≈) assume the structure as drawn. Read-outs that look alike come from different tables or passages of the source.

What was measured:
[1] = Solubility in four media (excess solid, 37 degrees Celsius, 24 h, HPLC assay); assay type: physicochemical; details: for solubility at 24 h: 37 °C, thermodynamic from solid
Procedure: In further analysis of the amorphous non-crystalline glass form (Form-II) of azithromycin, each of five replicate test tubes were filled with an excess of amorphous non-crystalline glass form (Form-II) of azithromycin and 10 ml of solubility medium. The process was performed with each of the following mediums: 0.1 N hydrochloric acid (pH 1), acetate buffer (pH 4.5), phosphate buffer (pH 6.8) and distilled water. This method was also used for testing the prior art azithromycin dihydrate.
The test tubes were then fixed to a rotating axis (54 rpm) and submerged in a water bath at 37 degrees Celsius±2 degrees Celsius for twenty-four hours. The contents of the test tubes were filtered through a 0.45 μm filter and the respective filtrates were subsequently diluted.
The concentrations of the filtrates were determined by HPLC (high performance liquid chromatography) assay. The HPLC assay was performed utilising a mobile phase (600:400) consisting of 8.7 g/L potassium dihydrogen phosphate buffer (pH 4.5) and acetonitrile. A Luna C18 250 mm×4.6 mm column was used with a flow rate of 0.5 mL/min and a wavelength of 210 nm. Validation of this method provided a linear regression r^2 of 0.9999.

[2] = Structural stability study at 40° C. and 75% relative humidity (XRPD, DSC, thermal microscopy); assay type: physicochemical; details: 4 week testing period
Text: FIG. 5: is a characteristic XRPD (x-ray powder diffraction pattern) of amorphous non-crystalline glass form (Form-II) of azithromycin taken over a period of time wherein 0 is at time of preparation, 1 is week 1, 2 is week 2, 3 is week 3 and 4 is week 4 (Vertical axis: intensity (Lin (counts)); Horizontal axis: 2 Theta (degrees));
FIG. 12: is a DSC (differential scanning calorimetry) trace of amorphous non-crystalline glass form (Form-II) of azithromycin, taken over a period of time, according to one embodiment of the invention wherein 0 is at time of preparation, 1 is week 1, 2 is week 2, 3 is week 3 and 4 is week 4 (Vertical axis: Heat flow (mW); Horizontal axis: temperature (degrees Celsius));
FIG. 13: is a thermal microscopy image (at 25 degrees Celsius) of amorphous non-crystalline glass form (Form-II) of azithromycin taken in the fourth week after preparation according to one embodiment of the invention; and […]

[3] = background statement; cited from earlier work
[4] = 0.1 N HCl; cited from earlier work
[5] = oral; cited from earlier work

With `CC[C@H]1OC(=O)[C@H](C)[C@@H](O[C@H]2C[C@@](C)(OC)[C@@H](O)[C@H](C)O2)[C@H](C)[C@@H](O[C@@H]2O[C@H](C)C[C@H](N(C)C)[C@H]2O)[C@](C)(O)C[C@@H](C)CN(C)[C@H](C)[C@@H](O)[C@]1(C)O` the “solubility in 0.1 N HCl” value ([1]; 0.1 N HCl (pH 1), 37 degrees Celsius) was 45.703 ± 0.917 mg/mL (≈ 61 mM), the “solubility in acetate buffer (pH 4.5)” value ([1]; acetate buffer pH 4.5, 37 degrees Celsius) was 18.045±0.485 mg/mL and the “solubility in distilled water” value ([1]; distilled water, 37 degrees Celsius) was 1.357 ± 0.233 mg/mL (≈ 1.81 mM). For the same compound, the “solubility in phosphate buffer (pH 6.8)” value ([1]; phosphate buffer pH 6.8, 37 degrees Celsius) was 10.968±0.182 mg/mL and the “structural stability (solid form)” value [2] was “structurally stable”.

With `CC[C@H]1OC(=O)[C@H](C)[C@@H](O[C@H]2C[C@@](C)(OC)[C@@H](O)[C@H](C)O2)[C@H](C)[C@@H](O[C@@H]2O[C@H](C)C[C@H](N(C)C)[C@H]2O)[C@](C)(O)C[C@@H](C)CN(C)[C@H](C)[C@@H](O)[C@]1(C)O` [azithromycin raw material (dihydrate), azithromycin dihydrate] the solubility at 24 h ([1]; 0.1 N hydrochloric acid, simulated gastric fluid, 0.1 N HCl (pH 1), 37 degrees Celsius, read-out: solubility in 0.1 N HCl) was 40.81 ± 0.368 mg/mL, the solubility at 24 h ([1]; aqueous buffer, acetate buffer pH 4.5, 37 degrees Celsius, read-out: solubility in acetate buffer (pH 4.5)) was 17.97 ± 0.113 mg/mL and the solubility at 24 h ([1]; aqueous buffer, phosphate buffer pH 6.8, 37 degrees Celsius, read-out: solubility in phosphate buffer (pH 6.8)) was 8.442 ± 0.069 mg/mL. For the same compound, the solubility at 24 h ([1]; distilled water, 37 degrees Celsius, read-out: solubility in distilled water) was 0.148 ± 0.028 mg/mL and the “water solubility (in words)” value [3] was “poorly soluble in water”.

For `CC[C@H]1OC(=O)[C@H](C)[C@@H](O[C@H]2C[C@@](C)(OC)[C@@H](O)[C@H](C)O2)[C@H](C)[C@@H](O[C@@H]2O[C@H](C)C[C@H](N(C)C)[C@H]2O)[C@](C)(O)C[C@@H](C)CN(C)[C@H](C)[C@@H](O)[C@]1(C)O` [azithromycin, (2R,3S,4R,5R,8R,10R,11R,12S,13S,14R)-2-ethyl-3,4,10-trihydroxy-3,5,6,8,10,12,14-heptamethyl-15-oxo-11-{[3,4,6-trideoxy-3-(dimethylamino)-β-D-xylo-hexopyranosyl]oxy}-1-oxa-6-azacyclopentadec-13-yl 2,6-dideoxy-3-C-methyl-3-O-methyl-α-L-ribo-hexopyranoside], the acid stability [4] is listed as “acid-stable” and the “bioavailability (share of an orally administered dose reaching systemic circulation)” value [5] is listed as 38%.
